Assays:
[1] = test system: wild-type zebrafish larvae; assay: Behavioral assay: light-induced motion response of wild-type larvae; format: in vivo, Zebrafish (Danio rerio)
Protocol: A total of 1,000 compounds were selected from the ChemBridge Corp. catalog. Compounds were dissolved in DMSO at a stock concentration of 1 μg/μL (˜1.5 mM). The library was screened at a 1:100 dilution in E3 solution for a final concentration of ˜15 μM. Negative controls were treated with an equal volume of DMSO. Groups of 3 larvae at 3 days post fertilization (dpf) were distributed into the wells of 96-well clear bottom black microplates (07-200-567; Fisher Scientific) in 150 μL E3 before the addition of small molecules. Stock solutions of compounds were added directly to zebrafish in the wells of a 96 well plate (Corning 3631), mixed, and allowed to incubate for 1 h in the dark at 28.5° C. prior to behavioral evaluation in the behavioral assay. Ordering information: 1 (5533696; ChemBridge); 3 (5538408; ChemBridge).
Larvae in each of the wells were exposed to four 1 second flashes of light stimulus in the following order: 450-500 nm (WL1), 415-455 nm (WL2), 352-402 nm (WL3), white light (WL4), with a 5 second inter-stimulus interval. Digital video recording was performed for 5 seconds before the first light stimuli and continued throughout the stimulation sequence. Band pass filters (Semrock FF02-475/50, FF02-435/40, FF01-377/50) were used to restrict the excitation light to the indicated wavelengths. […] 290 frames of digital video were recorded per well at 10 FPS using an EMCCD camera (C9100; Hamamatsu) mounted on an inverted compound microscope (AxioObserver A1; Zeiss) with a NA 0.03 1.25× objective and a barrier with a 0.7 mm diameter opening to restrict light scattering to the sample. MetaMorph software (Molecular Devices) was used to control the execution of TTL signals and camera capture using the built-in stream acquisition with trigger function. Each video was saved for review. Light stimuli were generated with an ozone free 300-Watt xenon bulb housed in a Lambda LS illuminator (Sutter Instruments). A dichroic mirror (T510LPXRXT; Chroma) was used for appropriate excitation of samples and bright field acquisition. Schott longpass absorption glass (RG610; Chroma) was added in the transmitted light path to reduce unwanted excitation to the well and to provide sufficient light for video recording. All behavioral experiments were conducted at room temperature. […]
To analyze digital video recordings, custom MetaMorph software scripts were used to automatically threshold the video to identify the area of larvae in each frame. Threshold images of the frames after each light activation event were overlaid to calculate a new combined threshold area. The motion index was calculated as the percentage change between the threshold area in the frame right before light activation and the new combined threshold area. This motion index correlates with the overall amount of motion in the well.

[2] = test system: larvae that lack exogenous expression of Trpa1b in cardiomyocytes; assay: Heartbeat experiment in larvae that lack exogenous expression of Trpa1b in cardiomyocytes; format: in vivo, zebrafish; conditions: no exogenous Trpa1b in cardiomyocytes
[3] = Photostationary state (PSS) determination; format: physicochemical
Text: […] In the latter case, the pure Z isomer spectrum was estimated using methods described in previous publications.

[4] = UV-Vis absorbance, E/Z isomerization with violet and green light; format: physicochemical; conditions: UV-Vis absorbance in DMSO
Protocol: Compounds were dissolved in DMSO at 250 μM and 260 μM for TRPswitch-A and TRPswitch-B, respectively and UV-Vis absorbance was measured using a NanoDrop 1000 (Thermo Scientific).

[5] = test system: zebrafish Trpa1a (zTrpa1a); assay: Rescue experiment, Trpa1b−/− embryos expressing zTrpa1a in Rohon-beard neurons; format: in vivo; conditions: 20 μM, motion within 5 s after 1 s WL3
Protocol: (§1) For Trpa1b ohnolog and paralog rescue experiments, Trpa1b^−/− embryos were injected with ngn1:zTrpa1b-2A-mCherry (partial plasmid sequence in SEQ ID NO:5), ngn1:zTrpa1a-2A-mCherry, ngn1:hTRPA1-2A-EGFP or ngn1:mTRPA1-2A-mCherry at the 1-cell stage for mosaic Rohon-beard neuron expression. Embryos were screened at 2 dpf for fluorescent expression in Rohon-beard neurons, incubated with 20 μM TRPswitch-B for 1 hr and decapitated posterior to the eyes right before experiments. NA 0.25 5× objective and 1 s WL3 light illumination was used.
(§2) To test the potential cross activity of TRPswitch-B on the zebrafish ohnolog Trpa1a and on mammalian orthologs, zebrafish Trpa1a, mouse TRPA1 or human TRPA1 were transiently re-expressed in the Rohon-beard neurons of mutant Trpa1b^−/− zebrafish and performed light-induced motion response experiments in the presence of TRPswitch-B. Rescue experiments were performed in Trpa1b^−/− zebrafish with transient mosaic re-expression of zebrafish Trpa1b (zTrpa1b), zebrafish Trpa1a (zTrpa1a), mouse TRPA1 (mTRPA1) or human TRPA1 (hTRAP1) in Rohon-beard neurons. Embryos were pre-treated with 20 μM TRPswitch-B and decapitated right before light stimulation to eliminate the light response mediated by the retina (Table 5). […]

[6] = molecular target: T1, human TRPA1 (Homo sapiens, UniProt O75762); assay: Rescue experiment, Trpa1b−/− embryos expressing hTRPA1 in Rohon-beard neurons; format: in vivo, zebrafish; conditions: 20 μM, motion within 5 s after 1 s WL3
T1 construct: 2A peptide (remnant stays on the channel) (C); EGFP (separated at the 2A site) (C, cleaved yes); expressed in transfected cells; host or cells: Rohon-Beard neurons of Trpa1b−/− zebrafish embryos, in vivo
T1 sequence (O75762 whole entry): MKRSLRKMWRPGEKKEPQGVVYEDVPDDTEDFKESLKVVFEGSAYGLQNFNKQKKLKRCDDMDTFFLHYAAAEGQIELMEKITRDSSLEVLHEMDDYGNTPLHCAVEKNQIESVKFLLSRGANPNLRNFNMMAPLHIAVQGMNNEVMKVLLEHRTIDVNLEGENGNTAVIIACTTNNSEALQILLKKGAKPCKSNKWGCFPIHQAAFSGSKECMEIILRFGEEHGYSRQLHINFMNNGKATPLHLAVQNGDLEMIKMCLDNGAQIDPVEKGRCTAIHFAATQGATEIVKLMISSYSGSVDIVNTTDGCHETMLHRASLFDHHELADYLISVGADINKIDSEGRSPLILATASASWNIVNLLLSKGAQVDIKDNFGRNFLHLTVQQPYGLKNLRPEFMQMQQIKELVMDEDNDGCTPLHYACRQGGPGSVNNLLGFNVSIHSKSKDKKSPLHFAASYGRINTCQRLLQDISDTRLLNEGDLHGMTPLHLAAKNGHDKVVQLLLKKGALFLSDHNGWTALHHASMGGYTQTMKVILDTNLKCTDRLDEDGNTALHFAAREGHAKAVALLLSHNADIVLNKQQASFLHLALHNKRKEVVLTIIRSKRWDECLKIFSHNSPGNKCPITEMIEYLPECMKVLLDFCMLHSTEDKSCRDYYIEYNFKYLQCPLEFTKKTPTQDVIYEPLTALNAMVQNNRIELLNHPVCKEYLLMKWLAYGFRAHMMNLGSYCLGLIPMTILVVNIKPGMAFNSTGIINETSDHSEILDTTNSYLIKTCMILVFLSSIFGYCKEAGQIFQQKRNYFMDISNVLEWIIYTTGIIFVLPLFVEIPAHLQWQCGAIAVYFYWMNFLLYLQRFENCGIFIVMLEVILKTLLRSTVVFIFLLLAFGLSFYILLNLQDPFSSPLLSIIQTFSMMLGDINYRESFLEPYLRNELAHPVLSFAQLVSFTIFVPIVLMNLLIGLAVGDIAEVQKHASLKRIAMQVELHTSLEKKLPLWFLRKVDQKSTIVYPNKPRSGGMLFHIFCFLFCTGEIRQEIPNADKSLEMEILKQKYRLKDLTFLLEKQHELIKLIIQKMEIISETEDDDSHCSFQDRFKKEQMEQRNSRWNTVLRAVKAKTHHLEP
Protocol: as §1, §2

[7] = test system: Trpa1b−/− embryos; assay: Rescue experiment, Trpa1b−/− embryos without re-expression; format: in vivo, zebrafish; conditions: 20 μM, motion within 5 s after 1 s WL3
Protocol: as §1, §2

[8] = test system: WT embryos; assay: Rescue experiment, WT embryos; format: in vivo, zebrafish; conditions: 20 μM, motion within 5 s after 1 s WL3
Protocol: as §1, §2

[9] = UV-Vis spectroscopy in 30% water:DMSO, extrapolated pure Z spectrum, listed as TRPswitch-B

365 nm PSS (E-Z) ([3]; 1H NMR in DMSO-d6): 92% Z | 420 nm PSS (E-Z) ([3]; 1H NMR in DMSO-d6): 55% Z | 495 nm PSS (Z-E) ([3]; 1H NMR in DMSO-d6): 86% E | Estimated 365 nm PSS (E-Z) [3, 9]: 92% Z | Estimated 495 nm PSS (Z-E) [3, 9]: 100% E | E/Z photoswitching with violet and green light ([4]; listed as TRPswitch-B): complete return | % response [6]: 0%
Structure (SMILES): Cc1nn(C)c(C)c1/N=N/c1ccc(NC(=O)c2cccs2)cc1NC(=O)c1cccs1 [Compound 9, (E)-N,N′-(4-((1,3,5-trimethyl-1H-pyrazol-4-yl)diazenyl)-1,3-phenylene)bis(thiophene-2-carboxamide)]
light-induced motion response (in vivo activity) ([1]; 3 dpf wild-type larvae, 1 s flashes WL1-WL4): comparable biological response to TRPswitch-A | effect of DABCO on light-induced motion response ([1]; DABCO, singlet oxygen quencher): no effect | heartbeat switching with light illumination [2]: negative results | E/Z photoswitching with violet and green light [4]: quantitative photoswitching in both directions | % response [5]: 0% | % response [7]: 0% | % response [8]: 65%
